# Assay results reported in patent publication US20140329863A1 (priority 2011, published 2014).
# Experiments:
# [1] = Metabolite identification in human, mouse, rat and dog liver microsomes; format: in vitro ADME
# Procedure: Samples were injected onto a BetaBasic C18 column and eluted with a gradient elution of mobile phase B (0.1% formic acid in ACN) from 5% to 95% over 30 min. For IND24-containing samples, the transitions monitored were 344→226 (parent); 360→226 and 360→242 (monohydroxylation); and 376→242 and 376→258 (dihydroxylation). […] Plasma and brain homogenate samples from FVB mice in single-dose (10 mg/kg) pharmacokinetic studies were similarly scanned to detect potential hydroxylated metabolites.
# Metabolites were separated on a Kinetex 100-Å column (2.6 μm, 100×2.1 mm, Phenomenex, Torrance, Calif.) at ambient temperature. […]
# The Orbitrap mass analyzer was calibrated according to the manufacturer's directions using a mixture of caffeine, Met-Arg-Phe-Ala (MRFA) peptide and Ultramark 1621. The parent compounds and their metabolites were detected by full scan mass analysis from m/z 150-1000 at a resolving power of 60,000 [at m/z 400, full width at half maximum (FWHM); 1-s acquisition] with data-dependent MS/MS analyses triggered by the most abundant ion. […] The data obtained was analyzed using Xcalibur v2.1 software (ThermoScientific; Waltham Mass.). Four-decimal monoisotopic masses of the parent compounds and their oxidative metabolites calculated using ChemBioDraw Ultra software version 11.0 (CambridgeSoft; Cambridge, Mass.) were used to interpret further the fragment ions.
# [2] = Fraction unbound in cell-culture media; format: in vitro ADME; details: 1 μM; mean ± SD, n = 3
# [3] = CYP phenotyping in human liver microsomes, no inhibitor (negative control, maximum metabolism); format: in vitro ADME
# [4] = 1 and 10 μM
# CYP2C19 [5] = target: T1, CYP2C19 (Homo sapiens, UniProt P33261); details: for CYP Involvement: CYP2C19, NADPH + N-3-B; for Δ % Disappearance: reversible incubation condition, NADPH + N-3-B
# T1 sequence (P33261 whole entry): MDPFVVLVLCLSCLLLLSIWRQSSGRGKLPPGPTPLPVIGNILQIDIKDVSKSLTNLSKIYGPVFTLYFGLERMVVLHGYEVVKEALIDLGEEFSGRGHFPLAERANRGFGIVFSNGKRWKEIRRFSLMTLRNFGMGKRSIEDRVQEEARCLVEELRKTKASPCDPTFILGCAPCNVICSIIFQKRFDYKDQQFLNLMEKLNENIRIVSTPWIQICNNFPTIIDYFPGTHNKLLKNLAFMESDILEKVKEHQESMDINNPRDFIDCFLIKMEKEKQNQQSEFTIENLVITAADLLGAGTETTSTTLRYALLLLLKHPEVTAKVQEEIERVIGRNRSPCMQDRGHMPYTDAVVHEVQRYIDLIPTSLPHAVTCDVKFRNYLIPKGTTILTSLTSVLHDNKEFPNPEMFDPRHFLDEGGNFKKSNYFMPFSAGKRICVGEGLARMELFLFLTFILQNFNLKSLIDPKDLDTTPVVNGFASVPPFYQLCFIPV
# CYP2C19 [6] = details: reversible incubation condition, NADPH + N-3-B
# Binding in human plasma = details: for Percentage binding, Human plasma, 1 μM / Unbound (%), Human Plasma: 1 μM; for Unbound (%), Human Plasma: mean ± SD, n = 3 (warfarin n = 2)
# [7] = Toleration studies in mice; details: 210 mg/kg/day for 14 days, mice
# CYP1A2 = target: T2, CYP1A2 (Homo sapiens, UniProt P05177); assay: Cytochrome P450 phenotyping in human liver microsomes, CYP1A2 (furafylline); format: in vitro ADME; details: HLM, 10 μM furafylline
# T2 construct: tissue BD Biosciences; host or cells: pooled human liver microsomes
# T2 sequence (P05177 1-516): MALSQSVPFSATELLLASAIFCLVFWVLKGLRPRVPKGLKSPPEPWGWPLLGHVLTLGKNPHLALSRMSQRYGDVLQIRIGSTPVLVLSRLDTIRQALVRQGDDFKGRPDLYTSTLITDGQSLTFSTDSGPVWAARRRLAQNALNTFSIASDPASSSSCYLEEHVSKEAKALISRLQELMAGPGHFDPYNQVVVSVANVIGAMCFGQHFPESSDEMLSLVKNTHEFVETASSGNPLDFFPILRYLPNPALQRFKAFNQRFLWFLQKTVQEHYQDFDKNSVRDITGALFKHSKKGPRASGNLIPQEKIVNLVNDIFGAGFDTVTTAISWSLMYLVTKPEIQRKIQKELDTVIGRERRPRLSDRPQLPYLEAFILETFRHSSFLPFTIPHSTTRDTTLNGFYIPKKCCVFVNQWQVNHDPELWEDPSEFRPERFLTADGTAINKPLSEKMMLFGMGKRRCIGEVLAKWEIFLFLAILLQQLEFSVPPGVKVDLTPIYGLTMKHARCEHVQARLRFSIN
# Text: (§1) % Disappearance=[(TC-NADPH TC+NADPH)/TC-NADPH]×100
# (§2) for which TC is the test compound.
# CYP3A4 = target: T3, CYP3A4 (Homo sapiens, UniProt P08684); assay: Cytochrome P450 phenotyping in human liver microsomes, CYP3A4 (ketoconazole); format: in vitro ADME; details: HLM, 1 μM ketoconazole
# T3 construct: tissue BD Biosciences; host or cells: pooled human liver microsomes
# T3 sequence (P08684 whole entry): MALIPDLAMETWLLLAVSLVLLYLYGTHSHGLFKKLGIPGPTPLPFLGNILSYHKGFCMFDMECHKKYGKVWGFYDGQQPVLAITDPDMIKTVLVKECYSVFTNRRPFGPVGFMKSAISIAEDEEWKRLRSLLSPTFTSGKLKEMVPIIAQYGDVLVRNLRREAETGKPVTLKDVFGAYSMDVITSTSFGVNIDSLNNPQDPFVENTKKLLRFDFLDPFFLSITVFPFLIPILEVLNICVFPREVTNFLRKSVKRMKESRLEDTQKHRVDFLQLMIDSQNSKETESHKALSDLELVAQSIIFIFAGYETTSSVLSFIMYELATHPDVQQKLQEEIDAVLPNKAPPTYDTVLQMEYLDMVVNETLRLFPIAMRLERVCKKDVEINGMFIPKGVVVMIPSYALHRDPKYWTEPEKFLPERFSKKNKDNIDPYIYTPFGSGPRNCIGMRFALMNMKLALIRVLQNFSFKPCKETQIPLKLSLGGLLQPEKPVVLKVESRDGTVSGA
# Text: as §1, §2
# CYP2C19 [8] = target: T1, CYP2C19; details: HLM, 5 μM (+)-N-3-benzylnirvanol
# in vitro [9] = details: human, plasma
# in vitro [10] = details: Sprague-Dawley (rat), beagle (dog), CD-1 (mouse), human, plasma
# [11] = irreversible incubation condition, maximum metabolism, NADPH/No Inhibitor
# [12] = irreversible incubation condition, negative control, No NADPH/No Inhibitor
# [13] = reversible incubation condition, maximum metabolism, NADPH/No Inhibitor
# [14] = reversible incubation condition, negative control, No NADPH/No Inhibitor
compound,measurement,setting,value
"Cc1cccc(Nc2nc(-c3ccc(-c4ccccc4)cc3)cs2)n1 [IND24, (4-Biphenyl-4-yl-thiazol-2-yl)-(6-methyl-pyridin-2-yl)-amine]",major metabolites,[1],ring hydroxylation
same,"Unbound (%), Cell-culture Media",[2],25.7 ± 4.93%
same,% Disappearance,[3]; [11],0 (−18) %
same,Measured Conc.,[3]; [11],0.733 µM
same,Δ % Disappearance,[3]; [11],0%
same,Measured Conc.,[3]; [12],0.622 µM
same,% Disappearance,[3]; [13],0%
same,Measured Conc.,[3]; [13],0.655 µM
same,Δ % Disappearance,[3]; [13],0%
same,% Disappearance,[3]; [14],0%
same,Measured Conc.,[3]; [14],0.654 µM
same,brain tissue binding,[4],92-93%
same,CYP Involvement,CYP2C19 [5],Unlikely (unlikely for values <5)
same,Δ % Disappearance,CYP2C19 [5],0 (−18) %
same,% Disappearance,CYP2C19 [6],18%
same,Measured Conc.,CYP2C19 [6],0.537 µM
same,"Percentage binding, Rat plasma, 1 μM",Binding in rat plasma,93.4 ± 2.13%
same,"Percentage binding, Rat plasma, 10 μM",Binding in rat plasma,94.0 ± 1.04%
same,"Percentage binding, Human plasma, 1 μM",Binding in human plasma,95.1 ± 1.03%
same,"Unbound (%), Human Plasma",Binding in human plasma,4.91 ± 1.03%
same,"Percentage binding, Human plasma, 10 μM",Binding in human plasma,95.4 ± 1.17%
same,Toleration,[7],well tolerated
"Cc1ccnc(Nc2nc(-c3ccc(-c4ccccn4)s3)cs2)c1 [IND81, (4-Methyl-pyridin-2-yl)-[4-(5-pyridin-2-yl-thiophen-2-yl)-thiazol-2-yl]-amine]",involvement of CYP1A2 in metabolism,CYP1A2,most likely to be involved
same,involvement of CYP3A4 in metabolism,CYP3A4,most likely to be involved
same,major metabolites,[1],ring hydroxylation
same,"Unbound (%), Cell-culture Media",[2],23.2 ± 2.68%
same,% Disappearance,[3]; [11],84%
same,Measured Conc.,[3]; [11],0.143 µM
same,Δ % Disappearance,[3]; [11],0%
same,% Disappearance,[3]; [12],0%
same,Measured Conc.,[3]; [12],0.899 µM
same,% Disappearance,[3]; [13],66%
same,Measured Conc.,[3]; [13],0.226 µM
same,Δ % Disappearance,[3]; [13],0%
same,% Disappearance,[3]; [14],0%
same,Measured Conc.,[3]; [14],0.664 µM
same,brain tissue binding,[4],~90%
same,involvement of CYP2C19 in metabolism,CYP2C19 [8],might be involved to a smaller extent
same,CYP Involvement,CYP2C19 [5],Possible (possible for values 5-10)
same,Δ % Disappearance,CYP2C19 [5],8.5%
same,% Disappearance,CYP2C19 [6],57%
same,Measured Conc.,CYP2C19 [6],0.283 µM
same,fraction unbound at 4 h,"in vitro [9]; pH 7.4, free fraction in plasma",~0.57
same,fraction unbound at 4 h,"in vitro [9]; pH 7.4, plasma protein binding, 1 and 10 μM",0.04 to 0.07
same,fraction unbound,in vitro [10],0.57
same,"Percentage binding, Rat plasma, 1 μM",Binding in rat plasma,94.2 ± 0.48%
same,"Percentage binding, Rat plasma, 10 μM",Binding in rat plasma,95.5 ± 0.66%
same,"Percentage binding, Human plasma, 1 μM",Binding in human plasma,94.2 ± 3.21%
same,"Unbound (%), Human Plasma",Binding in human plasma,5.78 ± 3.21%
same,"Percentage binding, Human plasma, 10 μM",Binding in human plasma,95.2 ± 0.86%
